IC50 data for 35 compounds are collected here from patent publication US20230295119A1, “SUBSTITUTED PYRIDINES FOR THE TREATMENT OF INFLAMMATORY DISEASES” (GOSSAMER BIO SERVICES, INC., priority 2020, published 2023).

Broadly, the pIC50 is the IC50 on a negative log10 scale, so that one unit is a factor of ten.

pIC50: −log10 of the molar value.

In one assay the target is human JAK2 (Homo sapiens (Human), UniProt O60674). Nature of the assay: JAK2 TR-FRET kinase assay. The format is biochemical. To be noted: JAK2 0.025 nM. A general note: TR-FRET usually uses a lanthanide donor and a delayed reading to cut background.
The next assay concerns the target human JAK1 (Homo sapiens (Human), UniProt P23458). Nature of the assay: JAK1 TR-FRET kinase assay. The format is biochemical. To be noted: TR-FRET, JAK1 2.5 nM.
Another assay has as its target human JAK3 (Homo sapiens (Human), UniProt P52333). Kind of assay: JAK3 TR-FRET kinase assay. The format is biochemical. To be noted: JAK3 0.0125 nM.
Another assay addresses TYK2 JH2 domain (Homo sapiens (Human), UniProt P29597). Nature of the assay: TYK2 JH2 NanoBRET assay. To be noted: Table 20, read-out: TYK2 IC50. The format is binding. An outline of the steps:
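HEK293T cells transiently expressing NanoLuc-TYK2 JH2 fusion, incubated 2 h with compound and NanoBRET K10 tracer (0.5 µM final). Target engagement read as acceptor/donor BRET ratio after Nano-Glo substrate plus extracellular NanoLuc inhibitor.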
In general terms: In BRET a luciferase serves as donor, and the signal depends on an acceptor being close.

Sequence of human JAK1 (P23458 whole entry): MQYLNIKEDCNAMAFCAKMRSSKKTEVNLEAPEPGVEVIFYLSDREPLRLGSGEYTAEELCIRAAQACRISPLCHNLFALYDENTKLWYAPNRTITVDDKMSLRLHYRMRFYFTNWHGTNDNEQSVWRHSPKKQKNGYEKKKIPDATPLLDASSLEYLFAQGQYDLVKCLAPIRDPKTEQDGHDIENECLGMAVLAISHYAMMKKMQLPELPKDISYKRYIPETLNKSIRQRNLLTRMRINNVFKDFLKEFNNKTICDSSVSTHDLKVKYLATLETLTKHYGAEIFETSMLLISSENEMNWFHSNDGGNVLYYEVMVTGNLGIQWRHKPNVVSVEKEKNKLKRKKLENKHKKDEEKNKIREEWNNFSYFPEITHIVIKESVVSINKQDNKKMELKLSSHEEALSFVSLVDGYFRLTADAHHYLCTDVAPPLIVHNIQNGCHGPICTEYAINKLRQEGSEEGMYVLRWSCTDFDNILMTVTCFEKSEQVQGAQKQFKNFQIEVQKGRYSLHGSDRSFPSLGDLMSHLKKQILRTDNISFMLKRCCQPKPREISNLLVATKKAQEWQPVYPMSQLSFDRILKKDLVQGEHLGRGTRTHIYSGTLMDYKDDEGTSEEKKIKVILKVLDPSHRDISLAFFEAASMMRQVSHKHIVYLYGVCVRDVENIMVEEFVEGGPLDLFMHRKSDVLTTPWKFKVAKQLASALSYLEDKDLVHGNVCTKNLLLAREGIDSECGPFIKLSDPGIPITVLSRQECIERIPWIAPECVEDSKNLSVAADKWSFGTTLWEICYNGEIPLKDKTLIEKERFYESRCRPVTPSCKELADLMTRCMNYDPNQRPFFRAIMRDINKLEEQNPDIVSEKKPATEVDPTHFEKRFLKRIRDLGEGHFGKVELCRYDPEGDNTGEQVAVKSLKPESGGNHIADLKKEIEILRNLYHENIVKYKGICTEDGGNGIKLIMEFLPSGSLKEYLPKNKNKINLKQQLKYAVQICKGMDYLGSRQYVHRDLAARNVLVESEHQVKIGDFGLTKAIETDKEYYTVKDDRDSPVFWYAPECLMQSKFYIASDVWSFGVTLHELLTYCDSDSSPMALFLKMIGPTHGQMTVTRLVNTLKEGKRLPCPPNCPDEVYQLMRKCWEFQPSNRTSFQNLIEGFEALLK
Sequence of human JAK3 (P52333 whole entry, the tested form may be a part): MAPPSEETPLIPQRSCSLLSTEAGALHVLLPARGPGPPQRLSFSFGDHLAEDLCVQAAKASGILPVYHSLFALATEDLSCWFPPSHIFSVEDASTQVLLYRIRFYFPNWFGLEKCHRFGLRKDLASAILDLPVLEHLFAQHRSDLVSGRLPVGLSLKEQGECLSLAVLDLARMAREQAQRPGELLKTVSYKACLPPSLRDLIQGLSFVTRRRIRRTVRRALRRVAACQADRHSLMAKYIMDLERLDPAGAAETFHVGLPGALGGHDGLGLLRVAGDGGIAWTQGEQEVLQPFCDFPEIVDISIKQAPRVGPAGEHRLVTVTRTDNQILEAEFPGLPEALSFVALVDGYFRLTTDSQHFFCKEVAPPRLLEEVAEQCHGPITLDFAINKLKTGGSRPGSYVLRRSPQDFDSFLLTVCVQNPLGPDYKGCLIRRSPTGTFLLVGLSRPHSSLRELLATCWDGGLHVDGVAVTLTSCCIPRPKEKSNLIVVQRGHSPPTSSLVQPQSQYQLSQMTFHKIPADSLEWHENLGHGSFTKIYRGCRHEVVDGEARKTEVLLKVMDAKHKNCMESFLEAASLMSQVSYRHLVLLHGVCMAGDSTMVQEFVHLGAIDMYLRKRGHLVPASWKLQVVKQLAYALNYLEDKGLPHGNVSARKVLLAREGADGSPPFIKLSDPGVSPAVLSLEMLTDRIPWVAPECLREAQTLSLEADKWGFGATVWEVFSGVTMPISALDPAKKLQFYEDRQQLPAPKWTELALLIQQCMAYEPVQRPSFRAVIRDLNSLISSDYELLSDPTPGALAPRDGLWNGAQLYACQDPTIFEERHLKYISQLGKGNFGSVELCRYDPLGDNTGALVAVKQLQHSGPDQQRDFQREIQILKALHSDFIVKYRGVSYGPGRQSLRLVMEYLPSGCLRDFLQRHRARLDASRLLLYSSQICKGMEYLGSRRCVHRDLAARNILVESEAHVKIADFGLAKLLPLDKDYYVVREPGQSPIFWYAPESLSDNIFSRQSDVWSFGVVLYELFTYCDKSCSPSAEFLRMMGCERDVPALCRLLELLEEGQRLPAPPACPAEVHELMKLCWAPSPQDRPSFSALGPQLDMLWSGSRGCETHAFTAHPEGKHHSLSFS
Sequence of TYK2 JH2 domain (P29597 589-875): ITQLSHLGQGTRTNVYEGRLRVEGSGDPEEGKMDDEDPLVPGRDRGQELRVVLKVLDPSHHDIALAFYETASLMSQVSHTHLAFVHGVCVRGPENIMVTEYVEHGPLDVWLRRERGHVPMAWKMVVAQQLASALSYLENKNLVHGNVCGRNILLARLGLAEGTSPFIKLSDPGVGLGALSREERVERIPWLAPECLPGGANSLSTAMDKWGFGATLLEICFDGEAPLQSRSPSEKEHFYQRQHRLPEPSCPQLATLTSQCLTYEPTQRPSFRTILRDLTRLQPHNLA
Sequence of human JAK2 (O60674 whole entry): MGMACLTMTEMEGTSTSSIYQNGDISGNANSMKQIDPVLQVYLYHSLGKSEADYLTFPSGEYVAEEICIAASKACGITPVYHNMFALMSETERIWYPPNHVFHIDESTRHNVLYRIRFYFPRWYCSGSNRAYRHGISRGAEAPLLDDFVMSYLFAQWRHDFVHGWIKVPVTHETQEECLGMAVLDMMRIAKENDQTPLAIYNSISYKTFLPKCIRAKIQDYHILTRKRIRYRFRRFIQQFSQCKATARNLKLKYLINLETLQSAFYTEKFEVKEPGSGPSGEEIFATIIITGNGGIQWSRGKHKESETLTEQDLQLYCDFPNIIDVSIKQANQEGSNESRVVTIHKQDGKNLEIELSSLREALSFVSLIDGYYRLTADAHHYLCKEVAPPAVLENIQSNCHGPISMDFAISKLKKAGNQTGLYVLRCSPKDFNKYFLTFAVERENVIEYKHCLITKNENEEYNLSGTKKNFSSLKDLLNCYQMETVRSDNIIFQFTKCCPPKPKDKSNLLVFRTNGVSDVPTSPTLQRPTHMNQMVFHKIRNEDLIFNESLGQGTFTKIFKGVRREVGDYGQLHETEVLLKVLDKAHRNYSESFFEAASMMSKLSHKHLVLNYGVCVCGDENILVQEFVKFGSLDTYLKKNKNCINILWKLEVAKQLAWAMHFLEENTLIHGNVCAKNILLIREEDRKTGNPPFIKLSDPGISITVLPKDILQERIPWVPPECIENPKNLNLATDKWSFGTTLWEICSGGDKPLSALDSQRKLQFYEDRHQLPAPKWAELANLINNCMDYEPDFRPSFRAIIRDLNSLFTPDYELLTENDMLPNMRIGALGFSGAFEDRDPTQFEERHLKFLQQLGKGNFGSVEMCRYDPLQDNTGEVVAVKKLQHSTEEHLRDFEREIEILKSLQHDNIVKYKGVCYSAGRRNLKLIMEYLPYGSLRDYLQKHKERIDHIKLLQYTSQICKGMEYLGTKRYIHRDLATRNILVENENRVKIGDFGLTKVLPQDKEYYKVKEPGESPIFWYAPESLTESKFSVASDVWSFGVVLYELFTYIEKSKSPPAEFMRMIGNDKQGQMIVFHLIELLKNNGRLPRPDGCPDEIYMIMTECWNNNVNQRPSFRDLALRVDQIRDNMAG

In the case of `CCC(=O)c1cnc(Nc2ccnc(O[C@@H]3CCN(C)C3)n2)cc1Nc1cccc(-c2ncn(C)n2)c1OC` [Compound 18LL], the pIC50 against human JAK2 is no more than 6.30; on human JAK1, no more than 6.30; against human JAK3 it was no more than 6.30; on TYK2 JH2 domain it was 7.30 to 8.30.
Turning to `CCC(=O)c1cnc(Nc2ccc(OC(C)(C)C(=O)O)c(C)n2)cc1Nc1cccc(-c2ncn(C)n2)c1OC` [Compound 18L], the pIC50 on human JAK2 is 6.30 to 7.30; at human JAK1 it was no more than 6.30; at human JAK3, 6.30 to 7.30; at TYK2 JH2 domain, no more than 6.30.
On to `CCC(=O)c1cnc(Nc2cnc(O[C@@H]3C[C@H](C)N(C)C3)cn2)cc1Nc1cccc(-c2ncn(C)n2)c1OC` [Compound 18MMM], for which the pIC50 on human JAK2 was no more than 6.30; against human JAK1, no more than 6.30; on human JAK3, no more than 6.30; on TYK2 JH2 domain, 7.30 to 8.30.
On to `CCC(=O)c1cnc(Nc2cnc(OCCN)cn2)cc1Nc1cccc(-c2ncn(C)n2)c1OC` [Compound 18MM], for which the negative-log IC50 (pIC50) against human JAK2 is no more than 6.30; against human JAK1, no more than 6.30; at human JAK3, no more than 6.30; on TYK2 JH2 domain, greater than 8.30.
Consider `CCC(=O)c1cnc(Nc2ccc(OCCO)nn2)cc1Nc1cccc(-c2ncn(C)n2)c1OC` [Compound 18M], for which the pIC50 was no more than 6.30 on human JAK2, no more than 6.30 at human JAK1, no more than 6.30 against human JAK3 and greater than 8.30 at TYK2 JH2 domain.
For `[2H]C([2H])([2H])N1CC[C@@H](Oc2cnc(Nc3cc(Nc4cccc(-c5ncn(C)n5)c4OC)c(C(=O)CC)cn3)cn2)C1` [Compound 18NNN], the pIC50 was no more than 6.30 at human JAK2, no more than 6.30 against human JAK1, no more than 6.30 on human JAK3 and 7.30 to 8.30 at TYK2 JH2 domain.
For the compound `CCC(=O)c1cnc(Nc2cnc(OCCNC)cn2)cc1Nc1cccc(-c2ncn(C)n2)c1OC` [Compound 18NN], the negative logarithm of the IC50 (pIC50) against human JAK2 is no more than 6.30; against human JAK1, no more than 6.30; against human JAK3, no more than 6.30; at TYK2 JH2 domain, greater than 8.30.
For `CCC(=O)c1cnc(Nc2ccc(OCCCO)nn2)cc1Nc1cccc(-c2ncn(C)n2)c1OC` [Compound 18N], the pIC50 on human JAK2 is no more than 6.30; against human JAK1 it was no more than 6.30; on human JAK3, no more than 6.30; at TYK2 JH2 domain it was greater than 8.30.
`CCC(=O)c1cnc(Nc2cnc(O[C@@H]3CCCN(C)C3)cn2)cc1Nc1cccc(-c2ncn(C)n2)c1OC` [Compound 18PPP]: the pIC50 against human JAK2 is no more than 6.30; at human JAK1, no more than 6.30; on human JAK3, no more than 6.30; on TYK2 JH2 domain, 7.30 to 8.30.
`CCC(=O)c1cnc(Nc2cnc(OCCN3CC(F)C3)cn2)cc1Nc1cccc(-c2ncn(C)n2)c1OC` [Compound 18PP]: the negative logarithm of the IC50 (pIC50) on human JAK2 is no more than 6.30; at human JAK1 it was no more than 6.30; at human JAK3, no more than 6.30; on TYK2 JH2 domain, 7.30 to 8.30.
Turning to `CCC(=O)c1cnc(Nc2cnc(OCCO)cn2)cc1Nc1cccc(-c2ncn(C)n2)c1OC` [Compound 18P], the pIC50 was no more than 6.30 at human JAK2, no more than 6.30 on human JAK1, no more than 6.30 against human JAK3 and 7.30 to 8.30 on TYK2 JH2 domain.
Regarding `CCC(=O)c1cnc(Nc2cnc(O[C@H]3CCCN(C)C3)cn2)cc1Nc1cccc(-c2ncn(C)n2)c1OC` [Compound 18QQQ], the negative logarithm of the IC50 (pIC50) on human JAK2 was no more than 6.30; against human JAK1, no more than 6.30; against human JAK3 it was no more than 6.30; at TYK2 JH2 domain, 7.30 to 8.30.
Regarding `CCC(=O)c1cnc(Nc2cnc(OCCN3CC(F)(F)C3)cn2)cc1Nc1cccc(-c2ncn(C)n2)c1OC` [Compound 18QQ], the pIC50 was no more than 6.30 at human JAK2, no more than 6.30 against human JAK1, no more than 6.30 on human JAK3 and 7.30 to 8.30 on TYK2 JH2 domain.
For the compound `CCC(=O)c1cnc(Nc2cnc(OCCCO)cn2)cc1Nc1cccc(-c2ncn(C)n2)c1OC` [Compound 18Q], the negative-log IC50 (pIC50) against human JAK2 was no more than 6.30; against human JAK1, no more than 6.30; against human JAK3, no more than 6.30; on TYK2 JH2 domain, 7.30 to 8.30.
As for `CCC(=O)c1cnc(Nc2cnc(O[C@H]3CN(C)CC3(F)F)cn2)cc1Nc1cccc(-c2ncn(C)n2)c1OC` [Compound 18RRR], the negative-log IC50 (pIC50) against human JAK2 is no more than 6.30; on human JAK1, no more than 6.30; on human JAK3, no more than 6.30; at TYK2 JH2 domain, 7.30 to 8.30.
On to `CCC(=O)c1cnc(Nc2cnc(OCCN3CC(C#N)C3)cn2)cc1Nc1cccc(-c2ncn(C)n2)c1OC` [Compound 18RR], for which the pIC50 on human JAK2 is no more than 6.30; against human JAK1 it was no more than 6.30; at human JAK3, no more than 6.30; on TYK2 JH2 domain, 7.30 to 8.30.
As for `CCC(=O)c1cnc(Nc2ccc(O[C@H]3COC[C@@H]3O)cn2)cc1Nc1cccc(-c2ncn(C)n2)c1OC` [Compound 18R], the pIC50 on human JAK2 is no more than 6.30; against human JAK1, no more than 6.30; on human JAK3, 6.30 to 7.30; on TYK2 JH2 domain it was greater than 8.30.
On to `CCC(=O)c1cnc(Nc2cnc(O[C@@H]3CCN(C)C[C@@H]3F)cn2)cc1Nc1cccc(-c2ncn(C)n2)c1OC` [Compound 18SSS], for which the pIC50 on human JAK2 is no more than 6.30; against human JAK1 it was no more than 6.30; against human JAK3, no more than 6.30; on TYK2 JH2 domain it was 7.30 to 8.30.
Turning to `CCC(=O)c1cnc(Nc2cnc(O[C@@H]3CCNC3)cn2)cc1Nc1cccc(-c2ncn(C)n2)c1OC` [Compound 18SS], the negative logarithm of the IC50 (pIC50) against human JAK2 is no more than 6.30; against human JAK1, no more than 6.30; on human JAK3 it was no more than 6.30; on TYK2 JH2 domain, 7.30 to 8.30.
Turning to `CCC(=O)c1cnc(Nc2ccc(O[C@H]3CN(C)C[C@@H]3O)cn2)cc1Nc1cccc(-c2ncn(C)n2)c1OC` [Compound 18S], the pIC50 against human JAK2 is no more than 6.30; against human JAK1, no more than 6.30; at human JAK3, 6.30 to 7.30; at TYK2 JH2 domain, 7.30 to 8.30.
On to `CCC(=O)c1cnc(Nc2cnc(O[C@H]3CCN(C)C[C@@H]3F)cn2)cc1Nc1cccc(-c2ncn(C)n2)c1OC` [Compound 18TTT], for which the pIC50 against human JAK2 was no more than 6.30; at human JAK1, no more than 6.30; against human JAK3 it was no more than 6.30; at TYK2 JH2 domain, 7.30 to 8.30.
As for `CCC(=O)c1cnc(Nc2cnc(O[C@H]3CCN(C)C3)cn2)cc1Nc1cccc(-c2ncn(C)n2)c1OC` [Compound 18TT], the pIC50 at human JAK2 is no more than 6.30; at human JAK1, no more than 6.30; at human JAK3, no more than 6.30; at TYK2 JH2 domain, greater than 8.30.
Turning to `COc1c(Nc2cc(Nc3ccc(OCCN(C)C)cn3)ncc2C(=O)C2CC2)cccc1-c1ncn(C)n1` [Compound 18T], the pIC50 was no more than 6.30 against human JAK2, no more than 6.30 at human JAK1, no more than 6.30 against human JAK3 and 7.30 to 8.30 on TYK2 JH2 domain.
On to `CCC(=O)c1cnc(Nc2ccc(O[C@H]3CN(C)C[C@@H]3F)cn2)cc1Nc1cccc(-c2ncn(C)n2)c1OC` [Compound 18UUU], for which the pIC50 on human JAK2 was no more than 6.30; against human JAK1, no more than 6.30; at human JAK3 it was no more than 6.30; at TYK2 JH2 domain, greater than 8.30.
Turning to `CCC(=O)c1cnc(Nc2cnc(O[C@@H]3CCN(C)C3)cn2)cc1Nc1cccc(-c2ncn(C)n2)c1OC` [Compound 18UU], the negative-log IC50 (pIC50) against human JAK2 is no more than 6.30; against human JAK1, no more than 6.30; at human JAK3 it was no more than 6.30; at TYK2 JH2 domain, 7.30 to 8.30.
Consider `CCC(=O)c1cnc(Nc2ccc(OC3CN(C)C3)cn2)cc1Nc1cccc(-c2ncn(C)n2)c1OC` [Compound 18U], for which the negative logarithm of the IC50 (pIC50) is no more than 6.30 against human JAK2, no more than 6.30 against human JAK1, no more than 6.30 at human JAK3 and greater than 8.30 at TYK2 JH2 domain.
In the case of `CCC(=O)c1cnc(Nc2ccc(O[C@@H]3CCN(C)C3)cn2)cc1Nc1cccc(-c2ncc(F)cn2)c1OC` [Compound 18VVV], the negative logarithm of the IC50 (pIC50) on human JAK2 is no more than 6.30; on human JAK1 it was no more than 6.30; against human JAK3, 6.30 to 7.30; on TYK2 JH2 domain it was 7.30 to 8.30.
As to `CCC(=O)c1cnc(Nc2cnc(OCCN3CCCC3)cn2)cc1Nc1cccc(-c2ncn(C)n2)c1OC` [Compound 18VV], the negative logarithm of the IC50 (pIC50) on human JAK2 is no more than 6.30; at human JAK1, no more than 6.30; at human JAK3, no more than 6.30; at TYK2 JH2 domain it was greater than 8.30.
Regarding `CCC(=O)c1cnc(Nc2ccc(O[C@@H]3CCN(C)C3)cn2)cc1Nc1cccc(-c2ncn(C)n2)c1OC` [Compound 18V], the pIC50 on human JAK2 is no more than 6.30; on human JAK1, no more than 6.30; at human JAK3 it was 6.30 to 7.30; on TYK2 JH2 domain, greater than 8.30.
Consider `CCC(=O)c1cnc(Nc2ccc(O[C@@H]3CCN(C)C3)cn2)cc1Nc1cc(F)cc(-c2ncn(C)n2)c1OC` [Compound 18WWW], for which the negative-log IC50 (pIC50) against human JAK2 is no more than 6.30; at human JAK1 it was no more than 6.30; at human JAK3, no more than 6.30; at TYK2 JH2 domain, greater than 8.30.
With `CCC(=O)c1cnc(Nc2cnc(OCCCN3CCCC3)cn2)cc1Nc1cccc(-c2ncn(C)n2)c1OC` [Compound 18WW], the negative-log IC50 (pIC50) was no more than 6.30 at human JAK2, no more than 6.30 against human JAK1, no more than 6.30 against human JAK3 and greater than 8.30 at TYK2 JH2 domain.
Regarding `CCC(=O)c1cnc(Nc2ccc(O[C@H]3CCN(C)C3)cn2)cc1Nc1cccc(-c2ncn(C)n2)c1OC` [Compound 18W], the pIC50 against human JAK2 was no more than 6.30; against human JAK1, no more than 6.30; against human JAK3, no more than 6.30; on TYK2 JH2 domain, greater than 8.30.
Turning to `CCC(=O)c1cnc(Nc2ncc(O[C@@H]3CCN(C)C3)cc2F)cc1Nc1cccc(-c2ncn(C)n2)c1OC` [Compound 18XXX], the pIC50 is no more than 6.30 against human JAK2, no more than 6.30 against human JAK1, no more than 6.30 on human JAK3 and 7.30 to 8.30 on TYK2 JH2 domain.
Turning to `CCC(=O)c1cnc(Nc2cnc(OCCN3CC[C@H](F)C3)cn2)cc1Nc1cccc(-c2ncn(C)n2)c1OC` [Compound 18XX], the pIC50 was no more than 6.30 against human JAK2, no more than 6.30 on human JAK1, no more than 6.30 on human JAK3 and 7.30 to 8.30 at TYK2 JH2 domain.
Take `[2H]C([2H])([2H])N1CC[C@@H](Oc2ccc(Nc3cc(Nc4cccc(-c5ncn(C)n5)c4OC)c(C(=O)CC)cn3)nc2)C1` [Compound 18X]: the pIC50 was no more than 6.30 at human JAK2, no more than 6.30 against human JAK1, 6.30 to 7.30 on human JAK3 and greater than 8.30 on TYK2 JH2 domain.
